In ChEMBL document CHEMBL5325432, “Systematic study of 1,2,3-triazolyl sterols for the development of new drugs against parasitic Neglected Tropical Diseases” (Eur J Med Chem, 2023) one finds selectivity ratio and IC50 data, which are given here for 20 molecules.

A short description of data set [1]: Selectivity index, ratio of IC50 for cytotoxicity against African green monkey Vero cells to IC50 for antiparasitic activity against Trypanosoma brucei assessed as parasite growth inhibition. Format: toxicity, cell-based. Particulars: read-out: Ratio IC50.
The nature of data set [2]: Cytotoxicity against African green monkey Vero cells incubated for 48 hrs. Format: toxicity, cell-based. As to conditions: African green monkey (Chlorocebus sabaeus).
The nature of data set [3]: Selectivity index, ratio of IC50 for cytotoxicity against African green monkey Vero cells to IC50 for antileishmanial activity against Leishmania donovani S1 promastigotes assessed as parasite growth inhibition. Format: toxicity, cell-based. Particulars: read-out: Ratio IC50.
The next data set has as its system Trypanosoma brucei. In words: Antiparasitic activity against Trypanosoma brucei assessed as parasite growth inhibition incubated for 3 days by Alamar blue assay. Format: functional, organism-based. As to conditions: 72 h. Background: Resazurin is reduced to fluorescent resorufin, in cell work by metabolically active cells.
The next data set concerns Trypanosoma cruzi. In words: Antiparasitic activity against Trypanosoma cruzi epimastigotes assessed as parasite growth inhibition incubated for 14 days by Alamar blue assay. Particulars: 336 h. The format is functional, organism-based.
A further data set relates to Leishmania donovani. In words: Antileishmanial activity against Leishmania donovani S1 promastigotes assessed as parasite growth inhibition incubated for 72 hrs by Alamar blue assay. Format: functional, organism-based. As to conditions: S1, 72 h.

As usually defined, the IC50 is the concentration needed to halve the response being measured. As for `CC(=O)O[C@H]1CC[C@@]2(C)C(=CC[C@H]3[C@@H]4CC[C@H]([C@H](C)NCc5cn(C/C=C(\C)CCC=C(C)C)nn5)[C@@]4(C)CC[C@@H]32)C1`, the selectivity ratio was greater than 13.8 in data set [1] and greater than 1.79 in data set [3]. The same molecule displayed an IC50 at 48 h in data set [2] greater than 8.67 µM. Moreover, the IC50 is 0.63 µM in the data set on Trypanosoma brucei, greater than 10 µM with Trypanosoma cruzi and 4.83 µM in the data set on Leishmania donovani.

`N=C(N)c1ccc(OCCCCCOc2ccc(C(=N)N)cc2)cc1` [PENTAMIDINE]: the selectivity ratio in data set [3] is 7.6.

Turning to `CC(=O)O[C@H]1CC[C@@]2(C)C(=CC[C@H]3[C@@H]4CC[C@H]([C@@H](C)NCc5cn(C/C=C(\C)CCC=C(C)C)nn5)[C@@]4(C)CC[C@@H]32)C1`, the figures for the selectivity ratio in data set [1] and in data set [3] were greater than 6.93 and 0.84, respectively. Besides, the IC50 at 48 h in data set [2] was greater than 8.67 µM. Further, the IC50 in the data set with Trypanosoma brucei was 1.25 µM; with Trypanosoma cruzi, greater than 10 µM; with Leishmania donovani it was 10.3 µM.

Consider `CCCCCCCCn1cc(CN[C@H](C)[C@H]2CC[C@H]3[C@@H]4CC=C5C[C@@H](OC(C)=O)CC[C@]5(C)[C@H]4CC[C@]23C)nn1`, for which the selectivity ratio in data set [1] is greater than 4.57. Moreover, the IC50 at 48 h in data set [2] was greater than 9.04 µM. The IC50 is 1.98 µM in the data set on Trypanosoma brucei, greater than 10 µM in the data set on Trypanosoma cruzi and greater than 10 µM in the data set on Leishmania donovani.

As to `CCOC(=O)Cn1cc(CN[C@H](C)[C@H]2CC[C@H]3[C@@H]4CC=C5C[C@@H](O)CC[C@]5(C)[C@H]4CC[C@]23C)nn1`, the selectivity ratio in data set [1] is greater than 1.59; in data set [3] it was greater than 1.56. Besides, in data set [2], the IC50 at 48 h is greater than 10.3 µM. Further, the IC50 with Trypanosoma brucei is 6.5 µM; in the data set with Trypanosoma cruzi, greater than 10 µM; in the data set on Leishmania donovani, 6.6 µM.

With `CCCCCCCCn1cc(CN[C@@H](C)[C@H]2CC[C@H]3[C@@H]4CC=C5C[C@@H](OC(C)=O)CC[C@]5(C)[C@H]4CC[C@]23C)nn1`, the selectivity ratio in data set [1] was greater than 14.6; in data set [3], greater than 1.15. Besides, the IC50 at 48 h in data set [2] is greater than 9.04 µM. The IC50 in the data set with Trypanosoma brucei is 0.62 µM; in the data set on Trypanosoma cruzi, greater than 10 µM; with Leishmania donovani, 7.87 µM.

For `C[C@]12CC[C@H]3[C@@H](CC=C4C[C@@H](O)CC[C@@]43C)[C@@H]1CC[C@@H]2[C@@](C)(O)Cn1cc(CCO)nn1`, the selectivity ratio in data set [1] is greater than 6.33. For the same molecule, the IC50 at 48 h in data set [2] was greater than 11.3 µM. In addition, the IC50 with Trypanosoma brucei is 1.78 µM; in the data set on Trypanosoma cruzi it was greater than 10 µM; in the data set on Leishmania donovani, greater than 10 µM.

Regarding `C[C@]12CC[C@H]3[C@@H](CC=C4C[C@@H](O)CC[C@@]43C)[C@@H]1CC[C@@H]2[C@@](C)(O)CN=[N+]=[N-]`, the IC50 at 48 h in data set [2] was greater than 12 µM. Also, the IC50 in the data set on Trypanosoma brucei, with Trypanosoma cruzi and in the data set on Leishmania donovani was greater than 10 µM each time.

Turning to `CCCCCCCCn1cc(CN[C@H](C)[C@H]2CC[C@H]3[C@@H]4CC=C5C[C@@H](O)CC[C@]5(C)[C@H]4CC[C@]23C)nn1`, the selectivity ratio in data set [1] was greater than 6.53; in data set [3], greater than 3.85. Also, the IC50 at 48 h in data set [2] is greater than 9.79 µM. The IC50 in the data set with Trypanosoma brucei is 1.5 µM; in the data set on Trypanosoma cruzi, greater than 10 µM; in the data set on Leishmania donovani, 2.55 µM.

In turn, `C[C@]12CC[C@H]3[C@@H](CC=C4C[C@@H](O)CC[C@@]43C)[C@@H]1CC[C@@H]2[C@@](C)(O)CNCc1cn(CCCc2ccccc2)nn1` registered an IC50 at 48 h in data set [2] greater than 9.14 µM. Further, the selectivity ratio in data set [3] is greater than 8.77. Besides, the half-maximal inhibitory concentration (IC50) in the data set with Trypanosoma brucei was greater than 10 µM; in the data set with Trypanosoma cruzi, greater than 10 µM; with Leishmania donovani, 1.04 µM.

For the molecule `C#CCNC[C@](C)(O)[C@H]1CC[C@H]2[C@@H]3CC=C4C[C@@H](O)CC[C@]4(C)[C@H]3CC[C@@]21C`, the selectivity ratio in data set [1] is greater than 6.95. The molecule further registered an IC50 at 48 h in data set [2] greater than 12.3 µM. Further, the IC50 with Trypanosoma brucei is 1.77 µM; in the data set on Trypanosoma cruzi it was greater than 10 µM; in the data set on Leishmania donovani, greater than 10 µM.

In the case of `C[C@]12CC[C@H]3[C@@H](CC=C4C[C@@H](O)CC[C@@]43C)[C@@H]1CC[C@@H]2[C@@](C)(O)Cn1cc(CCCc2ccccc2)nn1`, the selectivity ratio in data set [1] was greater than 4.25. This molecule also displayed an IC50 at 48 h in data set [2] greater than 9.66 µM. Also, the concentration for half-maximal inhibition (IC50) with Trypanosoma brucei is 2.27 µM; with Trypanosoma cruzi, greater than 10 µM; in the data set with Leishmania donovani, greater than 10 µM.

Take `CCOC(=O)Cn1cc(CNC[C@](C)(O)[C@H]2CC[C@H]3[C@@H]4CC=C5C[C@@H](O)CC[C@]5(C)[C@H]4CC[C@@]32C)nn1`: the IC50 at 48 h in data set [2] was greater than 9.71 µM. The IC50 with Trypanosoma brucei, with Trypanosoma cruzi and with Leishmania donovani was greater than 10 µM each time.

`CCOC(=O)Cn1cc(CN[C@H](C)[C@H]2CC[C@H]3[C@@H]4CC=C5C[C@@H](OC(C)=O)CC[C@]5(C)[C@H]4CC[C@]23C)nn1`: the selectivity ratio in data set [1] was greater than 1.46. Further, the IC50 at 48 h in data set [2] was greater than 9.49 µM. The results for the IC50 with Trypanosoma brucei, in the data set on Trypanosoma cruzi and with Leishmania donovani were 6.5 µM, greater than 10 µM and greater than 10 µM, respectively.

`COC(=O)c1cn(C[C@](C)(O)[C@H]2CC[C@H]3[C@@H]4CC=C5C[C@@H](O)CC[C@]5(C)[C@H]4CC[C@@]32C)nn1`: the selectivity ratio in data set [1] was greater than 1.28. Moreover, the IC50 at 48 h in data set [2] is greater than 10.6 µM. In addition, the IC50 in the data set with Trypanosoma brucei was 8.28 µM; in the data set with Trypanosoma cruzi, greater than 10 µM; in the data set with Leishmania donovani, greater than 10 µM.

Take `CC(C)=CCC/C(C)=C/Cn1cc(CN[C@H](C)[C@H]2CC[C@H]3[C@@H]4CC=C5C[C@@H](O)CC[C@]5(C)[C@H]4CC[C@]23C)nn1`: the selectivity ratio is greater than 14.2 in data set [1] and greater than 8.2 in data set [3]. In data set [2], this molecule yielded an IC50 at 48 h greater than 9.35 µM. The IC50 in the data set with Trypanosoma brucei was 0.66 µM; in the data set with Trypanosoma cruzi, greater than 10 µM; in the data set with Leishmania donovani, 1.14 µM.

`C[C@]12CC[C@H]3[C@@H](CC=C4C[C@@H](O)CC[C@@]43C)[C@@H]1CC[C@@H]2[C@@](C)(O)Cn1cc(-c2ccccc2)nn1` displayed an IC50 at 48 h in data set [2] greater than 10.5 µM. In addition, the IC50 in the data set on Trypanosoma brucei, in the data set with Trypanosoma cruzi and in the data set on Leishmania donovani was greater than 10 µM each time.

As to `CC(=O)O[C@H]1CC[C@@]2(C)C(=CC[C@H]3[C@@H]4CC[C@H]([C@@H](C)NCc5cn(Cc6ccccc6)nn5)[C@@]4(C)CC[C@@H]32)C1`, in data set [1], the selectivity ratio was greater than 6.22. In data set [2], the IC50 at 48 h is greater than 7.16 µM. In addition, the IC50 with Trypanosoma brucei is 1.15 µM; in the data set with Trypanosoma cruzi, greater than 10 µM; in the data set with Leishmania donovani it was greater than 10 µM.

As to `CCOC(=O)Cn1cc(CN[C@@H](C)[C@H]2CC[C@H]3[C@@H]4CC=C5C[C@@H](O)CC[C@]5(C)[C@H]4CC[C@]23C)nn1`, the IC50 at 48 h in data set [2] was greater than 10.3 µM. Besides, the selectivity ratio in data set [3] is greater than 1.61. Besides, the IC50 is greater than 10 µM with Trypanosoma brucei, greater than 10 µM with Trypanosoma cruzi and 6.4 µM in the data set with Leishmania donovani.

Take `C#CCN[C@H](C)[C@H]1CC[C@H]2[C@@H]3CC=C4C[C@@H](OC(C)=O)CC[C@]4(C)[C@H]3CC[C@]12C`: the selectivity ratio in data set [1] is greater than 2.3. In data set [2], the IC50 at 48 h was greater than 11.9 µM. The IC50 was 5.03 µM in the data set with Trypanosoma brucei, greater than 10 µM with Trypanosoma cruzi and greater than 10 µM in the data set on Leishmania donovani.
